This is an account of results in publication PMC9450014, “The evaluation of ADME and pharmacokinetic properties of decoquinate derivatives for the treatment of malaria” (Frontiers in Pharmacology, 2022).

A value given as a limit tells only on which side of the number the result lay.

One series can be described thus: Plasma stability. Format: in vitro ADME. As to conditions: human plasma. Here is the method: Stock solutions of compounds in DMSO were used to spike pooled human plasma. Samples were transferred in duplicate to 6 different wells of a 96-deep well plate. An aliquot of each sample was immediately quenched with ice cold acetonitrile containing the internal standard carbamazepine (0.1 μM), after which the plate was incubated in a water bath (37°C for 1 h). Aliquots of samples were removed at 5, 15, 40, 60, and 180 min and quenched with ice cold acetonitrile. After samples of the final time point were precipitated, the supernatant was transferred to a round bottom 96-well plate for analysis by LC-MS/MS using a reverse phase Gemini NX-C18 column (5 μM, 2.1 mm × 50 mm) with a Shimadzu HPLC coupled with an AB Sciex 3200 Q TRAP MS). The peak area ratios were used to calculate the amount of parent compound remaining and t1/2 in plasma, using the following equations.
% Parent remaining % Parent= Normalised peak area of sample at timepoint/Normalised peak area of sample at t=0 x 100
Predicted t1/2 t1/2= −0.693/λ Where λ is the slope of the Ln % parent remaining vs. time curve.

Series [1] in a line: Non-specific liver microsomal binding, MLM. Type of series: in vitro ADME. The conditions noted are these: mouse liver microsomes. As for the experimental part:
Plasma protein binding was determined in pooled human plasma using an ultracentrifugation method. Stock solutions of test compounds were diluted in phosphate buffer and spiked into plasma in deep well 96-well plates. An aliquot of each compound was immediately precipitated with ice cold acetonitrile containing the internal standard carbamazepine (0.1 μM). These served as total concentration samples. After incubation in a water bath (37°C for 1 h), samples were transferred to ultracentrifuge tubes in duplicate and centrifuged for 4 h at 37°C and 30,000 g (Optima L-80XP, Beckman). Following centrifugation, the supernatant was transferred to the plate containing the total concentration samples and precipitated with ice cold acetonitrile containing the internal standard. Samples were analysed by LC-MS/MS (Shimadzu HPLC coupled with an AB Sciex 3200 Q TRAP MS). Non-specific binding in mouse liver microsomes (MLM) and human liver microsomes (HLM) were also determined with the ultracentrifugation method. Stock solutions of compounds (10 mM) were added in duplicate to microsome solution (0.5 mg/mL) in phosphate buffer (pH 7.4) to obtain a final drug concentration of 1 μM. The same method as for plasma protein binding was utilized. Analyte concentrations of all compounds were determined via LC-MS/MS (reverse phase Gemini NX-C18 column and Shimadzu HPLC coupled with an AB Sciex 3200 Q TRAP MS).
(In general: Microsomes from liver hold many membrane-bound enzymes, among them those of drug oxidation.)

The nature of series [2]: In vivo pharmacokinetics, intravenous administration. Further details: species or system C57BL/6 mice. As to conditions: C57BL/6, mouse, iv, mice, whole blood, dosed compound measured. Here is the method:
Healthy C57BL/6 mice each weighing approximately 25 g were maintained at the University of Cape Town animal facility. Mice were housed in 27 × 21 × 28 cm cages (n = 3) under controlled environmental conditions at 22 ± 2°C, humidity of 55 ± 15% and a 12-hour light/dark cycle. Food and water were available ad libitum. Mice were acclimatised to the experimental environment for 4–5 days prior to initiating the experiments. […] The total volume of administration was 80 μL. Blood samples were collected post-dose in lithium heparin microvials via tail bleeding at predetermined intervals at 0.16, 0.5, 1, 3, 5, 8, 10, and 24 h. Samples were gently vortexed and stored at −80°C until analysis. A quantitative LC-MS/MS assay was used to determine whole-blood concentrations of RMB005, −059 and −060. Whole blood samples (20 μL) were treated with 100 μL ice cold acetonitrile containing the compound RMB073 used previously for determination of whole blood concentrations in analysis of TB-active compounds, as internal standard (200 ng/ml) ([Tanner et al., 2019]). The mixture was vortexed vigorously for 1 min, and 5 µL of the supernatant were injected onto the analytical column following centrifugation (5,590 g for 5 min). Gradient elution was carried out using a Gemini NX-C18 analytical column (5 μm, 2.1 mm × 50 mm). The aqueous mobile phase consisted of 5 mm ammonium acetate with 0.1% acetic acid in deionised water, while the organic phase consisted of 0.1% acetic acid in acetonitrile. A Shimadzu HPLC and reverse phase Gemini NX-C18 column coupled to an AB Sciex 3200 Q TRAP MS was operated at unit resolution in the multiple reaction monitoring (MRM) mode. […] The calibration standards ranged from 2 ng/mL to 3,000 ng/mL for RMB005, and 2 ng/mL to 4,000 ng/mL for RMB059, −060 and DQ. Drug concentration versus time plots for each compound were used to determine maximal drug concentration C max, time T max to reach C max, elimination half-life t 1/2 and the area under the concentration-time curve from time zero to infinity, AUC0-inf. From these values the following PK parameters—clearance CL, volume of distribution (Vd) and oral bioavailability (BA) were determined using the non-compartmental analysis Microsoft Excel Add-In PKSolver ([Zhang et al., 2010]).

In series [3] the test system is multidrug resistant Pf K1. Further details: method as in Beteck et al., 2018. The conditions noted are these: ref Beteck et al., 2018; read-out: IC50 against multidrug resistant Pf K1; cited from earlier work.

In the case of `CCCCCCCCCCOc1cc2c(=O)c(C(=O)NCCOCCO)c[nH]c2cc1OCC` [RMB005], the “Plasma stability (in words)” value in “Plasma stability” is “good plasma stability”; in “Plasma stability” (listed as RMB-005), “relatively stable”. Further, the half-life is > 2.5 h in “Plasma stability” (pooled plasma, 37°C) and 2.62 ± 0.61 h in series [2] (5 mg/kg per table footnote (10 mg/kg per method)). Moreover, the Bound to microsomes in series [1] stood at 99%. Further, in series [2] (5 mg/kg per table footnote), the volume of distribution (Vd) was 6.59 ± 1.83 L/kg. This compound had a clearance in series [2] (5 mg/kg per table footnote) of 28.5 ± 2.17 mL/min/kg. The 50% inhibitory concentration (IC50) in series [3] is 64.8 nM.

The term half-life denotes how long it takes for the measured level to halve. A higher half-life goes with slow loss. By Vd is commonly meant the apparent volume that relates the amount in the body to the concentration in plasma or blood. Lower therefore signals confinement near the circulation. Usually clearance stands for the rate of elimination divided by the concentration. A lower clearance goes with inefficient removal. A word on the IC50: it is the midpoint of a concentration-inhibition curve.
